Values quoted from earlier work, collected in PMC8654284 (Science Advances, 2021).
Like-named read-outs stand apart in the source and are kept apart here.

Columns and labels:
NK1R [1] = system: NK1R
NK1R [2] = conditions: said to explain the insurmountable antagonism only in part
NK1R [3] = conditions: clinically used NK1R antagonists
NK1R [4] = conditions: NKA and NKB compared to SP
NK1R E172K = conditions: NK1R E172 mutated to lysine as found in NK3R
[5] = inhibition of receptor activation by SP

Row | Compound | dissociation kinetics (NK1R [2]) | in vivo efficacy (duration) (NK1R [3]) | mode of antagonism (NK1R [1]; [5]) | affinity for NK1R (NK1R [4]) | further results
1 | COc1ccccc1CN[C@H]1CCCN[C@H]1c1ccccc1 [CP-99,994] |  |  |  |  | mode of antagonism (NK1R [1]; compared to aprepitant and netupitant): tight-binding, but surmountable
2 | C[C@@H](O[C@H]1OCCN(Cc2n[nH]c(=O)[nH]2)[C@H]1c1ccc(F)cc1)c1cc(C(F)(F)F)cc(C(F)(F)F)c1 [aprepitant] | slower dissociation kinetics | markedly prolonged in vivo efficacy | pseudo-irreversible antagonists |  | 
3 | Cc1ccccc1-c1cc(N2CCN(C)CC2)ncc1N(C)C(=O)C(C)(C)c1cc(C(F)(F)F)cc(C(F)(F)F)c1 [netupitant] | slower dissociation kinetics | markedly prolonged in vivo efficacy | pseudo-irreversible antagonists |  | 
4 | neurokinin A [NKA] |  |  |  | lower affinity compared to SP | 
5 | neurokinin B [NKB] |  |  |  | lower affinity compared to SP | affinity of NKB at E172K mutant (NK1R E172K): increases affinity
